Columns and labels:
[1] = test system: human hematologic cancer cell lines; assay: Antiproliferative effects in hematologic cancer cell lines (MTT assay); type: cell-based; settings: two cell lines derived from B-cell non-Hodgkin's lymphoma, 96 h
Protocol: A study was carried out to investigate anticancer activity of compounds 091 and 106 in a panel of human hematologic cancer cell lines in vitro. Antiproliferative effects of compounds 091 and 106 were evaluated in 7 human cancer cell lines representing several different cancer types of hematologic malignancy. […] Cell growth was assessed using the MTT assay.

[2] = Blood brain barrier penetration; settings: in vivo
[3] = test system: LOX human melanoma xenografts; assay: In vivo antitumor activity in LOX xenografts; set-up: species or system mice
Protocol: A study was carried out to investigate anticancer activity of compounds 091 and 106 in human LOX BRAF mutated melanoma xenografts. The compounds were evaluated against subcutaneous-implanted LOX human melanoma xenografts in female athymic mice.
(§1) The human melanoma cell line, LOX which has B-RAF (V600E) mutation was transplanted subcutaneously into female nude mice. The experiment consisted of 8 mice per group on the first day of treatment. Compounds were independently administered intravenously for two weekly rounds of five daily injections (q1d×5) with a two-day rest period between the rounds. Compounds were administered in a vehicle volume of 0.1 mL/10 g of body weight.
(§2) The general health of the mice was monitored daily. Tumor dimensions and body weights were recorded twice a week starting on the first day of treatment. Tumor weights were calculated using the equation (l×w^2)/2, where 1 and w refer to the larger and smaller dimensions collected at each measurement. When the mean tumor volume reached 128 mm^3, vehicle (cremophor:ethanol:5% glucose; 1:1:8) or one of the test compounds (10, 20, 30, or 40 mg/kg) was administered to mice (8/group).

MEK1 = MEK1 (Homo sapiens, UniProt Q02750); assay: Biochemical MEK1 assay (ELISA, ERK2-coated plate)
Protocol: A biochemical MEK1 assay was carried out to investigate whether compounds of formula (I) or (II), e.g., compounds 029, 091, 106 and 114 are MEK1 inhibitors. Biochemical MEK1 inhibition of the compounds was assessed using an ELISA assay. All assays were performed in a 96 well format. A plate coated with ERK2, a substrate protein for MEK1 was used for biochemical MEK1 assay. In a final volume of 40 μL, MEK1 (25 ng) was incubated with 50 mmol/L HEPES, 20 mmol/L MgCl2, 4 mmol/L MnCl2, and 0.5 mmol/L Na3VO4 in the absence or presence of the test compounds. The reaction was initiated by the addition of 1 μmol/L ATP. After incubation for 40 minutes at 30° C., the reaction mixture was discarded and the plate was then washed 4 times with 0.05% Tween20/PBS. Each well was incubated with 100 μL of 1:4000 diluted phospho-ERK1/2 monoclonal antibody (Cell Signaling, MA) for 1.5 hours at room temperature. The antibody was then discarded and the plate was washed 6 times with 0.05% Tween20/PBS. Finally, 100 μL of 1:2000 diluted of HRP conjugated anti-mouse IgG antibody (Cell Signaling, MA) was added. After incubation for 90 minutes, this antibody was discarded and the plate was washed 8 times with 0.05% Tween20/PBS. Phosphorylated ERK2 was then visualized by peroxidase reaction, and read at 450 nm. FIG. 2A is a table depicting results from MEK1 assays.

[4] = test system: PANC-1 pancreatic cancer cells; assay: PANC-1 cell growth, alone or in combination with SN-38 (CellTiter-Glo)
Protocol: To determine whether compounds 091 or 106 in combination with SN-38 would enhance the anticancer activity of chemotherapy due to MEKK1 inhibition, PANC-1 human pancreatic cancer cells were examined.
Antiproliferative effects of SN-38 were evaluated in PANC-1 pancreatic cancer cells in combination with compound 091 or 106. Cultured human cancer cells were placed into 96-well plates and grown in the absence or continuous presence of 0.03-1000 nM SN-38 for 96 h with or without 1 μM of test compound. Cell growth was assessed using CellTiter-Glo® Luminescent Cell Viability Assay (Promega). IC50 values were determined as the concentration of a substance which inhibits cell growth by 50% compared to untreated cell populations.

[5] = test system: BxPC-3 human pancreatic cancer xenografts; assay: In vivo antitumor activity in BxPC-3 xenografts; set-up: species or system mice; settings: 30 mg/kg i.v., two weekly rounds of q1d×5
Protocol: A study was carried out to investigate anticancer activity of compound 091 in human BxPC-3 pancreatic cancer xenografts. The compound was evaluated against subcutaneous-implanted BxPC-3 human pancreatic cancer xenografts in female athymic mice.
as §1, with “pancreatic cancer” for “melanoma”, “BxPC-3-T1 (no mutations on” for “LOX which has”, “and Ras genes)” for “(V600E) mutation”, “The compound was” for “Compounds were independently”, “The compound was” for “Compounds were”
as §2, with “130” for “128”, “or” for “or one of”, “compound (15, 30” for “compounds (10, 20, 30, or 40”

[6] = test system: Colo205 human colon cancer xenografts; assay: In vivo antitumor activity in Colo205 xenografts; set-up: species or system mice; settings: 30 mg/kg i.v., two weekly rounds of q1d×5
Protocol: A study was carried out to investigate anticancer activity of compounds 091 and 106 in human Colo205 BRAF mutated colon cancer xenografts. The compounds were evaluated against subcutaneous-implanted Colo205 human colon cancer xenografts in female athymic mice.
as §1, with “colon cancer” for “melanoma”, “Colo205” for “LOX”, “6” for “8”, “The compound was” for “Compounds were independently”, “Compound 091 was” for “Compounds were”
as §2, with “140” for “128”, “or” for “or one of”, “compound (30” for “compounds (10, 20, 30, or 40”, “(6/group).” for “(8/group).”

[7] = test system: Cell lines which carried a B-RAF V600E mutation; assay: Cell growth inhibition in solid cancer cell lines (CellTiter-Glo or methylene blue); type: cell-based; settings: 96 hours, B-RAF V600E mutated cell lines very sensitive
Protocol: Compounds 091 and 106, were extensively tested in solid cancer cell lines (shown in FIG. 3 for 18 cell lines for compound 091 and 20 cell lines for compound 106). […] Cell growth was assessed using a CellTiter-Glo® Luminescent Cell Viability Assay (Promega) or a methylene blue assay.

MEK1, sequence (Q02750 whole entry): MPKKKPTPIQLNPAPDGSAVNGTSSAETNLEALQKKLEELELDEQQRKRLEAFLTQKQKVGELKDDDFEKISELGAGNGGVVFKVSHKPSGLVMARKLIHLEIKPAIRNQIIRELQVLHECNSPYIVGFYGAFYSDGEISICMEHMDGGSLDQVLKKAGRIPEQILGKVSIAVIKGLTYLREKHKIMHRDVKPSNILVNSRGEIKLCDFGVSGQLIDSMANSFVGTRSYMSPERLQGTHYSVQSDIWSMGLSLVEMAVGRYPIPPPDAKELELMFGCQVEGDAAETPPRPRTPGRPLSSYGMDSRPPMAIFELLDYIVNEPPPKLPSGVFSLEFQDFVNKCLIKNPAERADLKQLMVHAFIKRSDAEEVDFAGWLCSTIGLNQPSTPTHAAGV

CNc1cc(O)c2c(c1)/C=C/C[C@H](O)[C@H](O)C(=O)/C=C\[C@@H](C)[C@H](C)OC2=O [Compound 091]
sensitivity of cell growth [1]: sensitive | brain/plasma AUC0-t ratio [2]: 3.170 | tumor regression ([3]; 10 mg/kg i.v., for the first three weeks): 100% | tumor regression ([3]; 20 mg/kg i.v., in all mice): 100% | tumor regression ([3]; 30 mg/kg i.v., in all mice): 100% | tumor regression ([3]; 40 mg/kg i.v., in all mice): 100% | tumor status of mice at the end of the study ([3]; mice given 091): tumor free | MEK1 inhibitory activity (MEK1; 1 μmol/L ATP): low nM activity | MEK1 inhibitory activity, dependence on ATP (MEK1; at a low concentration of ATP): more potent | effect on PANC-1 cancer cell growth, compound alone ([4]; 1 μM alone, separate experiments (data not shown)): did not affect | effect on cytotoxicity of SN-38 ([4]; 1 μM test compound in combination with SN-38): enhanced | tumor regression [5]: 50% | tumor regression [6]: ~70% | cell growth inhibition, concentration range of sensitivity [7]: low-nM or sub-μM

— patent US8937056B2, “Multikinase inhibitors for use in the treatment of cancer” (Eisai R&D Management Co., Ltd., priority 2007, dated 2015)
